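How tested: cells in 96-well plates exposed to compound for 48 hours at five concentrations. Here, GI50 denotes the concentration required for 50% inhibition of growth. TGI is the concentration that stops growth completely.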
Tests used:
Assay in all cases: DTP human tumour cell line panel, 48 h
SK-MEL-28 melanoma = system: SK-MEL-28 melanoma
UACC-257 melanoma = system: UACC-257 melanoma
SF-539 CNS = system: SF-539 CNS
NCI-H460 lung = system: NCI-H460 lung
NCI/ADR-RES ovarian = system: NCI/ADR-RES ovarian
CAKI-1 renal = system: CAKI-1 renal
SNB-19 CNS = system: SNB-19 CNS
HCC-2998 colon = system: HCC-2998 colon
HT29 colon = system: HT29 colon
SF-295 CNS = system: SF-295 CNS
UACC-62 melanoma = system: UACC-62 melanoma
SW-620 colon = system: SW-620 colon
K-562 leukemia = system: K-562 leukemia
HOP-92 NSCLC = system: HOP-92 NSCLC
SF-268 CNS = system: SF-268 CNS
NCI-H23 lung = system: NCI-H23 lung
TK-10 renal = system: TK-10 renal
MDA-MB-231 breast = system: MDA-MB-231 breast
U251 CNS = system: U251 CNS
UO-31 renal = system: UO-31 renal
OVCAR-8 ovarian = system: OVCAR-8 ovarian
COLO 205 colon = system: COLO 205 colon
HS 578T breast = system: HS 578T breast
SK-MEL-5 melanoma = system: SK-MEL-5 melanoma
OVCAR-4 ovarian = system: OVCAR-4 ovarian
NCI-H522 lung = system: NCI-H522 lung
SK-MEL-2 melanoma = system: SK-MEL-2 melanoma
CCRF-CEM leukemia = system: CCRF-CEM leukemia
HCT-15 colon = system: HCT-15 colon
OVCAR-5 ovarian = system: OVCAR-5 ovarian
SNB-75 CNS = system: SNB-75 CNS
HCT-116 colon = system: HCT-116 colon
T-47D breast = system: T-47D breast
SK-OV-3 ovarian = system: SK-OV-3 ovarian
HOP-62 NSCLC = system: HOP-62 NSCLC
EKVX NSCLC = system: EKVX NSCLC
ACHN renal = system: ACHN renal
RPMI-8226 leukemia = system: RPMI-8226 leukemia
IGROV1 ovarian = system: IGROV1 ovarian
NCI-H226 lung = system: NCI-H226 lung
OVCAR-3 ovarian = system: OVCAR-3 ovarian
MDA-MB-435 = system: MDA-MB-435
MCF7 breast = system: MCF7 breast
RXF 393 renal = system: RXF 393 renal
786-0 renal = system: 786-0 renal
PC-3 prostate = system: PC-3 prostate
HL-60(TB) leukemia = system: HL-60(TB) leukemia
KM12 colon = system: KM12 colon
SN12C renal = system: SN12C renal
MOLT-4 leukemia = system: MOLT-4 leukemia
BT-549 breast = system: BT-549 breast
LOX IMVI melanoma = system: LOX IMVI melanoma
A549 NSCLC = system: A549 NSCLC
DU-145 prostate = system: DU-145 prostate

Clc1ccc(OCc2nn3c(CCCCc4nnc5sc(COc6ccc(Cl)cc6Cl)nn45)nnc3s2)c(Cl)c1
GI50 (SK-MEL-28 melanoma): > 100 µM
TGI (SK-MEL-28 melanoma): > 100 µM
GI50 (UACC-257 melanoma): 72.7 µM
TGI (UACC-257 melanoma): > 100 µM
GI50 (SF-539 CNS): 55.8 µM
TGI (SF-539 CNS): > 100 µM
GI50 (NCI-H460 lung): 71.9 µM
TGI (NCI-H460 lung): > 100 µM
GI50 (NCI/ADR-RES ovarian): 35.8 µM
TGI (NCI/ADR-RES ovarian): > 100 µM
GI50 (CAKI-1 renal): 40.1 µM
TGI (CAKI-1 renal): > 100 µM
GI50 (SNB-19 CNS): 76.8 µM
TGI (SNB-19 CNS): > 100 µM
GI50 (HCC-2998 colon): 35.3 µM
TGI (HCC-2998 colon): > 100 µM
GI50 (HT29 colon): > 100 µM
TGI (HT29 colon): > 100 µM
GI50 (SF-295 CNS): 40.6 µM
TGI (SF-295 CNS): > 100 µM
GI50 (UACC-62 melanoma): 69.4 µM
TGI (UACC-62 melanoma): > 100 µM
GI50 (SW-620 colon): > 100 µM
TGI (SW-620 colon): > 100 µM
GI50 (K-562 leukemia): 22.7 µM
TGI (K-562 leukemia): 61 µM
GI50 (HOP-92 NSCLC): 50.3 µM
TGI (HOP-92 NSCLC): > 100 µM
GI50 (SF-268 CNS): 73.1 µM
TGI (SF-268 CNS): > 100 µM
GI50 (NCI-H23 lung): 37.3 µM
TGI (NCI-H23 lung): > 100 µM
GI50 (TK-10 renal): 32.6 µM
TGI (TK-10 renal): 92 µM
GI50 (MDA-MB-231 breast): 44.3 µM
TGI (MDA-MB-231 breast): > 100 µM
GI50 (U251 CNS): 29 µM
TGI (U251 CNS): 89.7 µM
GI50 (UO-31 renal): > 100 µM
TGI (UO-31 renal): > 100 µM
GI50 (OVCAR-8 ovarian): 46.2 µM
TGI (OVCAR-8 ovarian): > 100 µM
GI50 (COLO 205 colon): 52 µM
TGI (COLO 205 colon): > 100 µM
GI50 (HS 578T breast): 36.7 µM
TGI (HS 578T breast): > 100 µM
GI50 (SK-MEL-5 melanoma): 42 µM
TGI (SK-MEL-5 melanoma): > 100 µM
GI50 (OVCAR-4 ovarian): 50.3 µM
TGI (OVCAR-4 ovarian): > 100 µM
GI50 (NCI-H522 lung): 45.2 µM
TGI (NCI-H522 lung): > 100 µM
GI50 (SK-MEL-2 melanoma): > 100 µM
TGI (SK-MEL-2 melanoma): > 100 µM
GI50 (CCRF-CEM leukemia): 51 µM
TGI (CCRF-CEM leukemia): > 100 µM
GI50 (HCT-15 colon): > 100 µM
TGI (HCT-15 colon): > 100 µM
GI50 (OVCAR-5 ovarian): > 100 µM
TGI (OVCAR-5 ovarian): > 100 µM
GI50 (SNB-75 CNS): 33.3 µM
TGI (SNB-75 CNS): > 100 µM
GI50 (HCT-116 colon): 18.1 µM
TGI (HCT-116 colon): 63.1 µM
GI50 (T-47D breast): 43.9 µM
TGI (T-47D breast): > 100 µM
GI50 (SK-OV-3 ovarian): > 100 µM
TGI (SK-OV-3 ovarian): > 100 µM
GI50 (HOP-62 NSCLC): 60.1 µM
TGI (HOP-62 NSCLC): > 100 µM
GI50 (EKVX NSCLC): 57.5 µM
TGI (EKVX NSCLC): > 100 µM
GI50 (ACHN renal): 93.6 µM
TGI (ACHN renal): > 100 µM
GI50 (RPMI-8226 leukemia): 25.4 µM
TGI (RPMI-8226 leukemia): 59.6 µM
GI50 (IGROV1 ovarian): 83 µM
TGI (IGROV1 ovarian): > 100 µM
GI50 (NCI-H226 lung): 38 µM
TGI (NCI-H226 lung): > 100 µM
GI50 (OVCAR-3 ovarian): 30.4 µM
TGI (OVCAR-3 ovarian): 74.4 µM
GI50 (MDA-MB-435): 49.6 µM
TGI (MDA-MB-435): > 100 µM
GI50 (MCF7 breast): 48.1 µM
TGI (MCF7 breast): > 100 µM
GI50 (RXF 393 renal): 83.9 µM
TGI (RXF 393 renal): > 100 µM
GI50 (786-0 renal): 65.4 µM
TGI (786-0 renal): > 100 µM
GI50 (PC-3 prostate): 47.8 µM
TGI (PC-3 prostate): > 100 µM
GI50 (HL-60(TB) leukemia): > 100 µM
TGI (HL-60(TB) leukemia): > 100 µM
GI50 (KM12 colon): 31.9 µM
TGI (KM12 colon): > 100 µM
GI50 (SN12C renal): 94.3 µM
TGI (SN12C renal): > 100 µM
GI50 (MOLT-4 leukemia): 18.4 µM
TGI (MOLT-4 leukemia): 48.5 µM
GI50 (BT-549 breast): 54.2 µM
TGI (BT-549 breast): > 100 µM
GI50 (LOX IMVI melanoma): 67.1 µM
TGI (LOX IMVI melanoma): > 100 µM
GI50 (A549 NSCLC): 82.6 µM
TGI (A549 NSCLC): > 100 µM
GI50 (DU-145 prostate): 71.9 µM
TGI (DU-145 prostate): > 100 µM
